Laboratory results: patent US20260061085A1, “CYCLIC PEPTIDE AND PREPARATION METHOD THEREFOR, AND COMPLEX COMPRISING SAME AND USE THEREOF” (HEXIN (SUZHOU) PHARMACEUTICAL TECHNOLOGY CO., LTD., priority 2022, published 2026)
One block for each molecule: values may come before it. Square brackets hold non-standard residues; d marks the D form. Peptide text beside a SMILES is read from it. NMeN = CN[C@@H](CC(N)=O)C(=O)O; Orn = NCCC[C@H](N)C(=O)O; Dab = NCC[C@H](N)C(=O)O; Sar = CNCC(=O)O

Columns and labels:
[1] = Stability by in vitro constant temperature (37° C.) incubation in PBS, LC-MS/MS; assay type: physicochemical
Experimental: (§1) The experiment was carried out by using an in vitro constant temperature (37° C.) incubation method to study the stability of the cyclic peptide APN21 of Example 21 and the cyclic peptide KE5 of Comparative Example 1 in mouse plasma or PBS (1.0 μg/mL). The two cyclic peptides were dissolved in 1 mL of mouse […], respectively, and incubated at 37° C. for 0 h, 0.5 h, 1 h, 4 h, 24 h, and 48 h, and a percentage of drug remaining was then measured and determined. PBS was used as a negative control group. Peak areas of the drug and an internal standard were measured using an LC-MS/MS method, and ratios of the peaks were used instead of the drug concentration for calculation.

[2] = Stability by in vitro constant temperature (37° C.) incubation in mouse plasma, LC-MS/MS; assay type: in vitro ADME
Experimental: as §1

[3] = tested on: HT-1080 tumor-bearing mice; test: Small-animal PET/CT imaging of HT-1080 tumor-bearing mice with CD13 blocking; assay type: in vivo; conditions: co-injected with unlabeled NGR peptide 15 mg/kg, tail vein, 0.5, 1 and 2 hours after injection, versus unblocked APN21 Group
Experimental: HT-1080 cells were taken from normal NCr nude mice (18-25 g, 4-6 weeks old, n=3), and 2λ10^6 cells were implanted subcutaneously in right shoulders of mice in a mixture of 200 μL phosphate buffer and matrix gel (v/v, 1/1). […] PET/CT and image analysis were performed using a small-animal NovclMedcal PET/CT scanner (Novel Medical Equipment Ltd., Beijing). Maximum tangential and radial half-widths of the scanner in a center of field of view were 1.5 mm, and at an edge of the field of view were 1.8 mm. […] Static PET/CT images were obtained for 15 min at 0.5, 1, and 2 hours after intravenous injection. […] Static PET/CT images were obtained for 15 min at 0.5, 1, and 2 hours after intravenous injection. […] Static PET/CT images were obtained for 15 min at 0.5, 1, and 2 hours after intravenous injection. […] […] PET and CT images were acquired using NMSoft workstation software (Novel Medical Equipment Ltd., Beijing), and data were given as a percentage of injected dose per gram of tissue or organ (ID/g), and were determined through decay correction for each sample (standardized to a known weight of the injected dose).

[4] = tested on: HT-1080 cells; test: Relative cell uptake of Cy3 fluorescent peptides by HT-1080 cells; assay type: cell-based, human; conditions: Cy3 fluorescent peptide, 37° C. 30 min, multiple of KE5-Cy3 uptake taken as 1.00
Experimental: The binding affinity of the polypeptides in the examples and comparative examples to an HT-1080 cell line was identified through cell uptake studies.
The human fibrosarcoma cell line HT-1080 was cultured in Dulbecco's Modified Eagle Medium (DMEM) (Gibco) mixed with 10% sterile filtered fetal bovine serum (FBS) and 1% penicillin-streptomycin antibiotic solution. The cell culture was maintained in a controlled environment at 37° C. and 5% CO2, and subculture was performed every 3-4 days. 24 hours prior to the experiment, cells were seeded in a 96-well plate (5000 cells per well) and cultured overnight until the cells adhered to a wall. Before the experiment, cells were washed twice with […] of phosphate-buffered saline (PBS) to remove a growth medium.
Purification is performed through HPLC.
HT-1080 cells were treated with KE5-Cy3 fluorescent peptide of Comparative Example 1.
(§2) After incubation at 37° C. for 30 min, the cells were washed twice with PBS, an intracellular fluorescence intensity was measured using a fluorescence microplate reader (with an […]) to evaluate the uptake of KE5-Cy3 fluorescent peptide by HT-1080 cells.
(§3) 10 μL of CCK-8 were added to each group of cells and incubated for 4 h, the cells were then read using a microplate reader (with a wavelength of 490 nm), and errors in fluorescence intensity of each group of cells caused by difference in a number of cells was corrected by CCK-8.
Each group was subjected to the above operation three times to determine an optimal concentration for the uptake of KE5-Cy3 fluorescent peptide by HT-1080 cells.
(§4) HT-1080 cells were treated with the APN-Cy3 fluorescent peptide of each of the Examples, wherein a concentration of each APN-Cy3 fluorescent peptide was an optimal concentration determined by KE5-Cy3 fluorescent peptides of Comparative Example 1 according to the uptake by the HT-1080 cells.
as §2, with “APN-Cy3” for “KE5-Cy3”
A relative cell uptake (RCU) for each APN-Cy3 fluorescent peptide relative to the KE5-Cy3 fluorescent peptide was calculated using the following formula: […]

[5] = molecular target: T1, Aminopeptidase N (APN, also known as CD13) (human, UniProt P15144 2-967); test: Cy3 fluorescence uptake by HT-1080 cells, 37 C 30 min, microplate reader, CCK-8 corrected, relative to KE5-Cy3
T1 construct: whole, on cells; The assay itself used HT-1080 cells (endogenous expression, not transfected); also called CD13 protein; CD13 receptor
Experimental: as §4
as §2, with “APN-Cy3” for “KE5-Cy3”
as §3

[6] = 0.5 h, read-out: percentage of drug remaining
[7] = 1 h, read-out: percentage of drug remaining
[8] = 4 h, read-out: percentage of drug remaining
[9] = 24 h, read-out: percentage of drug remaining
[10] = 48 h, read-out: percentage of drug remaining

T1 sequence (P15144 2-967): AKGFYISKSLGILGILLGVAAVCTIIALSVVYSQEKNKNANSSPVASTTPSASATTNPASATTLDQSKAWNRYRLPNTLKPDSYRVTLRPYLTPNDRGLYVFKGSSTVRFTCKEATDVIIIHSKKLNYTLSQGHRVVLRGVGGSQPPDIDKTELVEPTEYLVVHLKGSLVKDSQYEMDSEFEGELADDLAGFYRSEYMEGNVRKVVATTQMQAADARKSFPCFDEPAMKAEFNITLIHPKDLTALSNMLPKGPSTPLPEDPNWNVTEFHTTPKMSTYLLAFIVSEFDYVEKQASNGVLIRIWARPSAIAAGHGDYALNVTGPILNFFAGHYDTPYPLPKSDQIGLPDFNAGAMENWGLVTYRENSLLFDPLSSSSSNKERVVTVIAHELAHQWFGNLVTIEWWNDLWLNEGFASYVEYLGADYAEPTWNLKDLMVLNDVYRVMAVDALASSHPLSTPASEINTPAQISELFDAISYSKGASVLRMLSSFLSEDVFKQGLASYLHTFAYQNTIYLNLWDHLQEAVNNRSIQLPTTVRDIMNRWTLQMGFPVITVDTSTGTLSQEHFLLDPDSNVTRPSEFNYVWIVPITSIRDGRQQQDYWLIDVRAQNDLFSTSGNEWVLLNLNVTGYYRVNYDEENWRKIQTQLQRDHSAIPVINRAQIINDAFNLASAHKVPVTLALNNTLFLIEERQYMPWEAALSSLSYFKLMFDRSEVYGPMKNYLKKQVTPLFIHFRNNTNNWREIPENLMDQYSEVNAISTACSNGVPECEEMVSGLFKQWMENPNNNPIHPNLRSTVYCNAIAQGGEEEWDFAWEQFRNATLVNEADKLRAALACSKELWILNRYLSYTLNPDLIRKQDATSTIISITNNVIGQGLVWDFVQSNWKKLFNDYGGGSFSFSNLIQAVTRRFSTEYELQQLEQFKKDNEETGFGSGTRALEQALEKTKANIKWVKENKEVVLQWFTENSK

percentage of drug remaining ([1]; 0 h): 100%
remaining at 0.5 h, 1 μg/mL [1, 6]: 99.1%
remaining at 1 h, 1 μg/mL [1, 7]: 96.6%
remaining at 4 h, 1 μg/mL [1, 8]: 91.4%
remaining at 24 h, 1 μg/mL [1, 9]: 73.4%
remaining at 48 h, 1 μg/mL [1, 10]: 42.7%
percentage of drug remaining ([2]; 0 h): 100%
remaining at 0.5 h, 1 μg/mL [2, 6]: 94.8%
remaining at 1 h, 1 μg/mL [2, 7]: 89.4%
remaining at 4 h, 1 μg/mL [2, 8]: 80.2%
remaining at 24 h, 1 μg/mL [2, 9]: 39.8%
remaining at 48 h, 1 μg/mL [2, 10]: 12.4%
Molecule: N=C(N)NCCC[C@@H]1NC(=O)CNC(=O)[C@H](CC(N)=O)NC(=O)[C@H](CCCCN)NC(=O)[C@H](CCC(=O)O)NC1=O [Comparative Example 1, cyclo(NGREK), reference compound] (cyclo(EKNGR))

Molecule: ^68Ga-APN21-Bn-SCN-NOTA: ^68Ga-labelled conjugate of cyclic peptide APN21 (Example 21) with NOTA-Bn-SCN chelator (cyclo(N[Sar]RTKY); not fully specified (residue 5); also: 68Ga-NOTA-Bn-SCN chelator conjugated, site not given here)
PET/CT signal intensity (tumor uptake) in APN21-Blocking Group [3]: significantly weaker than that of the unblocked APN21 group

Molecule: cyclo(NGRDK) (cyclic; circular) [Example 1]
RCU (relative cell uptake) [4]: 0.65

Molecule: cyclo(NGRTCE) (cyclic; circular) [Example 10]
RCU (relative cell uptake) [4]: 0.77

Molecule: cyclo(NGRTCF) (cyclic; circular) [Example 12]
RCU (relative cell uptake) [4]: 0.82

Molecule: cyclo(NGRTCG) (cyclic; circular) [Example 13]
RCU (relative cell uptake) [4]: 0.49

Molecule: cyclo(NGRTCV) (cyclic; circular) [Example 11]
RCU (relative cell uptake) [4]: 0.92

Molecule: cyclo(NGRTCY) (cyclic; circular) [Example 14]
RCU (relative cell uptake) [4]: 1.05

Molecule: cyclo(NGRTKF) (cyclic; circular) [Example 7]
RCU (relative cell uptake) [4]: 0.56

Molecule: cyclo(NGRTKG) (cyclic; circular) [Example 8]
RCU (relative cell uptake) [4]: 1.14

Molecule: cyclo(NGRTKf) (cyclo(NGRTK[dF]); SMILES C[C@@H](O)[C@@H]1NC(=O)[C@H](CCCNC(=N)N)NC(=O)CNC(=O)[C@H](CC(N)=O)NC(=O)[C@@H](Cc2ccccc2)NC(=O)[C@H](CCCCN)NC1=O) [Example 17]
RCU (relative cell uptake) [4]: 0.49

Molecule: cyclo(NSarRTDabY) (cyclo(N[Sar]RT[Dab]Y); SMILES C[C@@H](O)[C@@H]1NC(=O)[C@H](CCCNC(=N)N)NC(=O)CN(C)C(=O)[C@H](CC(N)=O)NC(=O)[C@H](Cc2ccc(O)cc2)NC(=O)[C@H](CCN)NC1=O) [Example 24]
RCU (relative cell uptake) [4]: 0.57

Molecule: cyclo(NSarRTOrnY) (cyclo(N[Sar]RT[Orn]Y); SMILES C[C@@H](O)[C@@H]1NC(=O)[C@H](CCCNC(=N)N)NC(=O)CN(C)C(=O)[C@H](CC(N)=O)NC(=O)[C@H](Cc2ccc(O)cc2)NC(=O)[C@H](CCCN)NC1=O) [Example 23]
RCU (relative cell uptake) [4]: 1.20

Molecule: cyclo(NSarRTcY) (cyclo(N[Sar]RT[dC]Y); SMILES C[C@@H](O)[C@@H]1NC(=O)[C@H](CCCNC(=N)N)NC(=O)CN(C)C(=O)[C@H](CC(N)=O)NC(=O)[C@H](Cc2ccc(O)cc2)NC(=O)[C@@H](CS)NC1=O) [Example 25]
RCU (relative cell uptake) [4]: 0.72

Molecule: cyclo(NmeGRTDabY) (cyclo([NMeN]GRT[Dab]Y); SMILES C[C@@H](O)[C@@H]1NC(=O)[C@H](CCCNC(=N)N)NC(=O)CNC(=O)[C@H](CC(N)=O)N(C)C(=O)[C@H](Cc2ccc(O)cc2)NC(=O)[C@H](CCN)NC1=O) [Example 26]
RCU (relative cell uptake) [4]: 0.41

Molecule: cyclo(NmeGRTKY) (cyclo([NMeN]GRTKY); SMILES C[C@@H](O)[C@@H]1NC(=O)[C@H](CCCNC(=N)N)NC(=O)CNC(=O)[C@H](CC(N)=O)N(C)C(=O)[C@H](Cc2ccc(O)cc2)NC(=O)[C@H](CCCCN)NC1=O) [Example 20]
RCU (relative cell uptake) [4]: 0.78

Molecule: cyclo(NmeGRTOrnY) (cyclo([NMeN]GRT[Orn]Y); SMILES C[C@@H](O)[C@@H]1NC(=O)[C@H](CCCNC(=N)N)NC(=O)CNC(=O)[C@H](CC(N)=O)N(C)C(=O)[C@H](Cc2ccc(O)cc2)NC(=O)[C@H](CCCN)NC1=O) [Example 27]
RCU (relative cell uptake) [4]: 0.37

Molecule: cyclo(NmeGRTcY) (cyclo([NMeN]GRT[dC]Y)) [Example 28]
RCU (relative cell uptake) [4]: 0.62

RCU (relative cell uptake, KE5-Cy3 = 1.00) [5]: 5.68 fold of KE5-Cy3
B1: APN21-Cy3 fluorescent peptide (Example 21) (peptide)
peptide: cyclo(N[Sar]RTKY)
modifications: not fully specified (residue 5); also: Cy3 dye attached via Cy3-NHS, site not given here
notes: also called cyclo(NSarRTKY)
